By IC50 is commonly meant the concentration that gives 50% inhibition. As a reminder, the half-life is how long it takes for the measured level to halve. The low end stands for fast loss, the high end for slow loss. By Km is commonly meant the substrate concentration at which the rate is half of its maximum. The solubility is the concentration that dissolves in the medium under given conditions.

Converted amounts (≈) assume the structure as drawn. Like-named read-outs stand apart in the source and are kept apart here.

In series [1] the target is T1, Pseudomonas fluorescens KMO (PfKMO) (Pseudomonas fluorescens, UniProt Q84HF5, C252S/C461S).
T1 construct: made in house; host or cells: E. coli BL21 (DE3)
T1 sequence (Q84HF5 whole entry C252S/C461S): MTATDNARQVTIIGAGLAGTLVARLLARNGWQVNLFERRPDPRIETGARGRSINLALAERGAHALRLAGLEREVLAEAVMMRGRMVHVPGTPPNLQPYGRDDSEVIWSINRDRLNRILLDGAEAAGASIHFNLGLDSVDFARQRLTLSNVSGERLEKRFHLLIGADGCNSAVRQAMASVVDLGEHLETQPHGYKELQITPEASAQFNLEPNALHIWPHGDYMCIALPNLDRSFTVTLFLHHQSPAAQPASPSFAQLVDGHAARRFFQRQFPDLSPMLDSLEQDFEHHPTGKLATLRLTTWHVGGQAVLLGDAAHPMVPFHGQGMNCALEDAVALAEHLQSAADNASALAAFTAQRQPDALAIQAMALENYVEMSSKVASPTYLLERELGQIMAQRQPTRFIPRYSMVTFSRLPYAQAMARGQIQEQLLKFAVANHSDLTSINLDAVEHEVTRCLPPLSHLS
Nature of the series: biochemical. From the text:
(§1) A combination of ligand- and structural-based virtual screening approaches (see supporting information for details) was used to identify an initial library of >1000 compounds that may be suitable as potential KMO inhibitors. These compounds were screened for inhibition of Pseudomonas fluorescens KMO (PfKMO) and Homo sapiens KMO (HsKMO) using high-throughput assays by monitoring the time-dependent oxidation of NADPH at 340 nm[23].
(§2) Small-molecule compounds were supplied by Biofocus (Charles River Laboratories International Inc., MA, USA), which were identified in silico as potential inhibitors (further details are described in the Supplementary Methods). Initial inhibition assays were performed against Pseudomonas fluorescens KMO (PfKMO) and Homo sapiens KMO (HsKMO) by monitoring the time-dependent absorbance change of NADPH at 340 nm. Purified KMO protein (200 nM) was incubated in 100 µL reaction buffer (20 mM potassium phosphate pH 8.0, 7 mM 2-mercaptoethanol) containing 100 μM NADPH, 100 μM L-Kyn and 20 μM potential inhibitors in 96-well plates. […] The inhibitors identified in the initial screens were validated and re-assayed individually in a 1 cm path-length quartz micro cuvette. […] Suppliers for target inhibitor compounds are listed in Supplementary Table 11.
Supplementary Figure 1. Examples of inhibition data used to generate IC50 values for selected KMO inhibitors. Fixed concentration of L -KYN (200 µM) and NADPH (100µM) were added into reaction buffer (HsKMO: 20mM potassium phosphate pH 8.0, 7 mM 2-mercaptoethanol; PfKMO: 20 mM HEPES, 10mM sodium acetate, pH 7.5, 2mM DTT). The reaction was initiated by the addition of KMO enzyme (HsKMO: 0.5µM; PfKMO: 0.1 µM). KMO activity was measured in the presence of a range of inhibitor concentrations. […]
(§3) 3.5 Steady-state enzymatic assays.
(§4) Initial screening assays and determination of IC50 values for each potential inhibitor compound were carried out using either 0.1 µM PfKMO or 0.5 µM HsKMO at fixed […]
(§5) (HsKMO: 20 mM potassium phosphate pH 8.0, 7 mM 2-mercaptoethanol; PfKMO:
(§6) 20 mM HEPES, 10 mM sodium acetate, pH 7.5, 2 mM DTT). KMO activity was measured in the presence of a range of inhibitor concentrations by monitoring the […]
consumption of NADPH at 340 nm upon addition of enzyme via a Cary 50 UV-Vis spectrophotometer (Agilent Technologies). Rates were determined from linear regression fits to the initial linear portion of the curves. All measurements were performed in triplicate. The IC50 values for inhibitors were obtained by plotting the percentage inhibition versus the inhibitor concentration and fitting to the Morrison equation16 (equation 1) using Origin 9.0 Software (OriginLab, Northampton, MA). […]

In a further series the target is T2, Homo sapiens KMO (HsKMO) (Homo sapiens, UniProt O15229).
T2 construct: GST; made in house
T2 sequence (O15229 whole entry): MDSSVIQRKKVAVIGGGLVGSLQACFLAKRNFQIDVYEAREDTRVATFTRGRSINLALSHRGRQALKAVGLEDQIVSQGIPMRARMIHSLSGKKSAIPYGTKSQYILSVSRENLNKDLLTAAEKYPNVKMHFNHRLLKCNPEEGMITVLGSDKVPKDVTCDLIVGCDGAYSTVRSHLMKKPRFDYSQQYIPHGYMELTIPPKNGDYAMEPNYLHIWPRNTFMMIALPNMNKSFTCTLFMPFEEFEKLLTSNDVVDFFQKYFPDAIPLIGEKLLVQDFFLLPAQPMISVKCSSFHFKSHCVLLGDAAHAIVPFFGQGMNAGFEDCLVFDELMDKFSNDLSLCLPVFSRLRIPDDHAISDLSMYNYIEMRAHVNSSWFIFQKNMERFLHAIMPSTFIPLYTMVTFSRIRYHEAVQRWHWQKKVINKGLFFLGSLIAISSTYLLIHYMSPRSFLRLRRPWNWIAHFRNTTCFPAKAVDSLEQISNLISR
The experiment in a line: KMO inhibition assay, NADPH oxidation at 340 nm (HsKMO). It is filed as biochemical.
Text: as §1, §2
Supplementary Figure 1. Examples of inhibition data used to generate IC50 values for selected KMO inhibitors.
NADPH (100µM) were added into reaction buffer (HsKMO: 20mM potassium phosphate pH 8.0, 7 mM 2-mercaptoethanol; PfKMO: 20 mM HEPES, 10mM sodium acetate, pH 7.5, 2mM DTT). The reaction was initiated by the addition of KMO enzyme (HsKMO: 0.5µM; PfKMO: 0.1 µM). KMO activity was measured in the presence of a range of inhibitor concentrations. […]
as §3, §4, §5, §6
(§7) consumption of NADPH at 340 nm upon addition of enzyme via a Cary 50 UV-Vis spectrophotometer (Agilent Technologies). Rates were determined from linear regression fits to the initial linear portion of the curves. All measurements were performed in triplicate. The IC50 values for inhibitors were obtained by plotting the percentage inhibition versus the inhibitor concentration and fitting to the Morrison equation16 (equation 1) using Origin 9.0 Software (OriginLab, Northampton, MA).
E + I + K!"" − E + I + K!"" ! − 4[E][I] where v0 is the enzyme activity without inhibitor, vi is the enzyme activity with ligand

Series [2] can be described thus: Mouse brain penetration study. It is filed as in vivo, female C57BL6 mice. To be noted: mouse. How it is done: Inhibitor 1 (and prodrugs 1a, 1b, 1c and 1d) was dosed as a bolus solution intravenously at 1 mg free base/kg (dose volume: 5 mL/kg; dose vehicle: 5% DMSO; 95% saline (inhibitor 1) or 5% DMSO; 40% PEG400; 55% MilliQ H2O (prodrugs 1a, 1b, 1c and 1d)) to female C57BL6 mice (n = 6). At 5 min and 60 min following intravenous bolus injection of test compound, mice (n = 3/timepoint) were placed under terminal anaesthesia with isofluorane. A blood sample was taken by cardiac puncture, the […] decapitated and the brain removed. Brain weight was noted and each brain homogenised with two volumes of methanol (2 mL/g brain). Each blood sample was diluted with distilled water (1:10). Diluted blood and the brain homogenates were then stored frozen until preparation and analysis by UPLC-MS/MS. For each mouse at each timepoint for 1, the concentration in brain (ng/g) was divided by the concentration in blood (ng/mL) to give a brain:blood ratio. The mean value obtained was quoted. For prodrugs 1a to 1d, only the concentration of 1 in blood (ng/mL) and brain (ng/g) was reported.
A rapid and sensitive ultra-performance chromatography/tandem mass spectrometry (UPLC-MS/MS) method was developed and validated for the determination of inhibitor 1 and prodrug 1b (rat only). Chromatographic analysis was conducted on a Waters Acquity™ UPLC system. Chromatographic separation was performed with an Acquity™ UPLC BEH C18 column (50 × 2.1 mm, 1.7 µm, 130Å; Waters Corp.) maintained at 40 °C in a column oven. The mobile phase consisted of water with 0.01% formic acid and ACN with 0.01 % formic acid and it was delivered at a flow rate of 0.6 mL/min under gradient eluent conditions within an analysis cycle time of 3 min. The mass detection was conducted on a Waters Xevo™ TQs mass spectrometer equipped with a ScanWave™ technology. Quantitation of the analyte was performed in electrospray positive ionisation mode (ESI^+) using multiple reaction monitoring. The optimised fragmentation transition was m/z = 270.17 → 196.19 (mouse) or m/z = 270.17 → 223.76 (rat) for inhibitor 1 and m/z = 297.83 → 195.74 for prodrug 1b (rat).
Sample extraction for blood and brain homogenate was by protein precipitation (1:3 or 1:6) using ACN containing suitable internal standard. Extracts were vortexed followed by centrifugation (2800 rpm for 10 min). An aliquot of each supernatant was then diluted two-fold in distilled water ready for analysis by UPLC-MS/MS.
The weighted 1/x^2 calibration line was linear in the dynamic range of 1–5000 ng/mL for inhibitor 1 and 1–1000 ng/mL for prodrug 1b with a correlation coefficient (r^2) > 0.99 (inhibitor 1) or 0.98 (prodrug 1b). The quality control samples (QC) were prepared by using the same spiking scheme as the calibration samples and up to four different target concentration brain levels: 2 ng/mL (LQC), 40 ng/mL (MQC), 100 ng/mL (HQC) and 2000 ng/mL. Data collection, peak integration and calculations were performed using MassLynx software, version 2.1.

A short description of series [3]: Stability in mouse hepatic microsomes. Particulars: for half-life at 1 µM: mouse, microsomes.
Protocol: 3.6.3 Compound stability in mouse hepatic microsomes and rat hepatocytes
A microsomal stability assay was performed as described in the BioFocus Standard
Operating Procedure ADME-SOP-83, using pooled hepatic mouse
Test and control compounds (midazolam,
dextromethorphan), were prepared in DMSO and incubated at an initial concentration
in the presence of the cofactor, NADPH (1 mM). Aliquots were removed at 0, 5, 10,
20 and 40 minutes for termination of reactions and compound extraction with ACN
containing an analytical internal standard. Samples were centrifuged and the
supernatant fractions analysed for parent compound by mass spectrometry (LC-
MS/MS). The amount of compound remaining (expressed as %) was determined from
the MS response in each sample relative to that in the T = 0 samples (normalised for
internal standard). Ln plots of the % remaining were used to determine the half-life
the slope of the Ln % remaining vs time curve. The in vitro intrinsic clearance Clint
For the next series, the target named is T3, PfKMO (Pseudomonas fluorescens, UniProt Q84HF5, C252S/C461S).
T3 construct: made in house; host or cells: E. coli BL21 (DE3)
T3 sequence (Q84HF5 whole entry C252S/C461S): as the sequence (Q84HF5 whole entry C252S/C461S) above
The experiment in a line: biochemical. To be noted: substrates of PfKMO; read-out: Km. How it is done: saturating concentrations of the L-KYN and NADPH substrates. Data are plotted […]
as §7
E + I + K!"" − E + I + K!"" ! − 4[E][I] where v0 is the enzyme activity without inhibitor, vi is the enzyme activity with ligand concentration [I], [E] is the enzyme concentration, [I] is the inhibitor concentration, K!"" is the apparent inhibition constant and IC = K!"" + [!] . If K!"" ≫ [!], IC ≈ […]
where Ki is the inhibition constant, [S] is the substrate concentration used in the assay and Km is the Michaelis-Menten constant17. […]
between Ki and Ki apparent values, as the conditions for measuring IC50 are different, Ki values can be used to compare with other reported KMO inhibitors.
Steady-state kinetic parameters for PfKMO were calculated by measuring initial rates […]
the observed rate of turnover (v) versus the varied substrate concentration were fitted to equation 2 using Origin 9.0 Software (OriginLab, Northampton, MA).
A B + K!! B + K!! A + K!!K!! where v is the initial rate of activity, Vmax is the maximum velocitie of the reaction, [A] and [B] are the substrate concentration, K!! and K!! are the Michaelis-Menten constant for different substrate and K!! is the inhibition (binding) constant of substrate A to the free enzyme while forming transitory complexes.18
Product inhibition studies were carried out by measuring reaction rates at varying […]
one substrate and varying concentrations of the other substrate. Inhibition studies with target compounds were carried out by measuring reaction rates at varying inhibitor concentrations at saturating concentrations of one substrate and varying concentrations of the other substrate. […]
were used to distinguish between different types of inhibition. The data were fitted to a straight line defined by the Lineweaver-Burke equation (equation 4), with the y intercept providing 1/Vmax and the x intercept giving -1/Km. […]

Series [4] is described as follows: Kinetic solubility in PBS, pH 7.4 (2% DMSO). It is filed as physicochemical. To be noted: PBS with 2% DMSO, pH 7.4, aqueous buffer, kinetic from dmso stock, PBS, pH 7.4 (2% DMSO).
[5] abbreviates: 1 mg/kg i.v., 5 min, single mice, analyte inhibitor 1 (also after prodrugs) or 1h.
The mark [6] stands for this setting: Half-life Mean, mouse hepatic microsomes.
Where [7] appears, read: Half-life n=1, mouse hepatic microsomes.
Setting [8] is: Half-life n=2, mouse hepatic microsomes.

As to `Cc1cc2c(c(C)c1Cl)N(CC(=O)OC(C)(C)C)C(=O)CO2` [1d], the IC50 in series [1] is about 200 µM; on Homo sapiens KMO (HsKMO), over 300 µM. Moreover, the In blood entry in series [2] (setting [5]) is recorded as “≤ LLoQ”. For the same compound, the In brain result is “≤ LLoQ” in series [2] (setting [5]) and “≤ LLoQ” in series [2] (1 mg/kg i.v., 60 min, single mice, analyte inhibitor 1 (also after prodrugs) or 1h). Further, the “Release of 1 in blood and brain” value in series [2] (prodrug 1 mg/kg i.v. bolus) was “undetectable”.
As to `COc1ccc2c(c1)[C@]13CCCC[C@@H]1[C@H](C2)N(C)CC3` [Dextromethorphan, reference compound], in series [3] (mouse hepatic microsomes), the Mean intrinsic clearance is recorded as 97 µL/min/mg microsome protein. In addition, the half-life at 1 µM came to 29 min in series [3] (setting [6]), 28 min in series [3] (setting [7]) and 29 min in series [3] (setting [8]).
As to `Cc1ncc2n1-c1ccc(Cl)cc1C(c1ccccc1F)=NC2` [Midazolam, reference compound], in series [3] (mouse hepatic microsomes), the Mean intrinsic clearance is > 554 µL/min/mg microsome protein. Besides, the half-life at 1 µM in series [3] (setting [6]), in series [3] (setting [7]) and in series [3] (setting [8]) was under 5 min each time.
With `NC(=O)C1=CN([C@@H]2O[C@H](COP(=O)(O)OP(=O)(O)OC[C@H]3O[C@@H](n4cnc5c(N)ncnc54)[C@H](OP(=O)(O)O)[C@@H]3O)[C@@H](O)[C@H]2O)C=CC1` [NADPH, reference compound], the Km on PfKMO was determined as 16.9 ± 1.5 µM.
For the compound `COC(=O)[C@H]1[C@H]2C[C@@H]3c4[nH]c5cc(OC)ccc5c4CCN3C[C@H]2C[C@@H](OC(=O)c2cc(OC)c(OC)c(OC)c2)[C@@H]1OC` [Reserpine, reference compound], the solubility at 2 h in series [4] (read-out: Solubility Mean), in series [4] (read-out: Solubility n=1) and in series [4] (read-out: Solubility n=2) was 9 µM (≈ 5.48 µg/mL) each time.
For the compound `COc1ccc(-c2cn(CC(=O)O)c(=O)cn2)cc1` [compound 15, 2-(5-(4-methoxyphenyl)-2-oxopyrazin-1(2H)-yl)acetic acid], the results for the IC50 (in series [1] (read-out: IC50 PfKMO); on Homo sapiens KMO (HsKMO)) were 6.3 ± 0.6 µM and 54.2 µM, respectively.
In the case of `O=C(O)c1ccc(-c2ccc(Cl)cc2Cl)o1` [compound 16, 5-(2,4-dichlorophenyl) furan-2-carboxylic acid], the IC50 was 70.2 ± 2.8 µM in series [1] and 207 µM on Homo sapiens KMO (HsKMO).
The like results for `O=C(O)c1ccc(-c2cccc(Cl)c2)o1` [compound 17, 5-(3-chlorophenyl) furan-2-carboxylic acid] were, in that order, 15.9 ± 0.8 µM and 442 µM.
On to `O=C(O)c1ccc(-c2ccc(F)c(Cl)c2)o1` [compound 18, 5-(3-chloro-4-fluorophenyl) furan-2-carboxylic acid], for which the results for the 50% inhibitory concentration (IC50) (in series [1]; at Homo sapiens KMO (HsKMO)) were 2.4 ± 0.3 µM and 193 µM, respectively.
On to `O=C(O)c1ccc(-c2ccc(Br)c(Cl)c2)o1` [compound 19, 5-(4-bromo-3-chlorophenyl) furan-2-carboxylic acid], for which the IC50 in series [1] is 0.7 ± 0.01 µM; at Homo sapiens KMO (HsKMO), 54.2 µM.

Values taken from paper PMC6656724 (Communications Biology, 2019).
